These results are taken from the OligoGym collection.

These antisense oligonucleotides have a phosphorothioate backbone; sugars and methylation of C are not fully specified.
Further: test concentration or dose not given here.

In one series the target is DUSP9. The settings on record: ASO.
On to CCCATGAAGTTGAAGTTGGG, for which the remaining target (mRNA or protein) (fraction of control) turned out to be 0.44. TGACAACACCAGTGATGGCA had a remaining target (mRNA or protein) (fraction of control) of 0.52. AGAAGAGGCAGGCTCCGAGC: the remaining target (mRNA or protein) (fraction of control) came out at 0.53. Consider AAGAACCGCGACAGGTTCTG, for which the remaining target (mRNA or protein) (fraction of control) stood at 0.83. GGGCCCCGCAGCAGCAAAAG yielded a remaining target (mRNA or protein) (fraction of control) of 0.35. Take TGGGCGATCGGCTCCCTACA: the remaining target (mRNA or protein) (fraction of control) came to 0.91. In the case of CGAGCCCTCCTGCCCTCCCC, the remaining target (mRNA or protein) (fraction of control) came out at 0.65. Consider CCAGGCAGGAGCGCGCGCAC, for which the remaining target (mRNA or protein) (fraction of control) was 0.62. In turn, CCGGGCACTGCCCAGATAGA gave a remaining target (mRNA or protein) (fraction of control) of 0.62. Sequence CAGCAGGGTGCCCAGCACCG showed a remaining target (mRNA or protein) (fraction of control) of at least 1. For AGCGGCCCAGACCCTCCATG, the remaining target (mRNA or protein) (fraction of control) is 0.46. TGGGCAGGGACACCCGTGGG showed a remaining target (mRNA or protein) (fraction of control) of 0.79. Regarding CTCATGGAGTCGCGGTCAGC, the remaining target (mRNA or protein) (fraction of control) worked out at 0.86.

Sequence TGGAGCTTCTGCATGAGGTA gave a remaining target (mRNA or protein) (fraction of control) of 0.75. Same read-out and setting: to CTCCTGCGAGTGGCGCTCCT belongs at least 1; to TCCATGGGCGATCGGCTCCC, 0.74; to AGGCCATGGATGTGGGCGGC, 0.57. In turn, GTGGCACACACCCTTCCTGA registered a remaining target (mRNA or protein) (fraction of control) of at least 1. Turning to CGAGCACCCCGCAGTTCTGG, the remaining target (mRNA or protein) (fraction of control) came out at 0.94. The sequence ATTAGGACGGCAGCCCGCGT returned a remaining target (mRNA or protein) (fraction of control) of at least 1. CCCAGGGCCGGGACCTGGGC displayed a remaining target (mRNA or protein) (fraction of control) of 0.98. In turn, CCTCCATGGGCGATCGGCTC displayed a remaining target (mRNA or protein) (fraction of control) of 0.7. The same measure, in the same setting: to GACAGAAATGAATGACTGTG belongs 0.14; to AGGCCCCAGCCCCGAGAGGC, 0.54; to GACCCCATCTCCTCCGGCGG, 0.23. Regarding CGTCGCGGCCGGGAAGTTTC, the remaining target (mRNA or protein) (fraction of control) came out at 0.95. For the sequence CATGGGCGATCGGCTCCCTA, the remaining target (mRNA or protein) (fraction of control) is 0.85.

For CGAAGAAGTTTGGGAGGTTG, the remaining target (mRNA or protein) (fraction of control) was determined as 0.3. Same read-out and setting: with AGACCCTCCATGGGCGATCG the figure was 0.45; with CGAGCGGCCCAGACCCTCCA, at least 1; with GCCACGCTCAGCGCCCCACC, 0.94. In turn, CCACGGGCACTGGACCGGGC registered a remaining target (mRNA or protein) (fraction of control) of 0.5. AGCCCCAGTGATCCCGTCAA: the remaining target (mRNA or protein) (fraction of control) was at least 1. With CGGCCCAGACCCTCCATGGG, the remaining target (mRNA or protein) (fraction of control) worked out at 0.57. CCAGACCCTCCATGGGCGAT registered a remaining target (mRNA or protein) (fraction of control) of at least 1.

As to GGGCGCTCCGCTCTGCTCGG, the remaining target (mRNA or protein) (fraction of control) was 0.8. AGGAGCAGGAGCCGCGGCCG returned a remaining target (mRNA or protein) (fraction of control) of 0.7. On the same count and under the same terms, to GCCCAGACCCTCCATGGGCG belongs 0.92.

The sequence ACCCTCCATGGGCGATCGGC came in with a remaining target (mRNA or protein) (fraction of control) of 0.43.

The next series deals with ERBB2. The settings on record: ASO.
Consider TCGGAGCCAGCCCCTTCG, for which the remaining target (mRNA or protein) (fraction of control) amounted to 0.53. GGTCTCGGGACTGGCAGG yielded a remaining target (mRNA or protein) (fraction of control) of 0.68. The sequence CCACAAAGACTCCCCAGT returned a remaining target (mRNA or protein) (fraction of control) of 0.44. Consider CAGGAAGGACAGGCTGGC, for which the remaining target (mRNA or protein) (fraction of control) is 0.94.

GGGTGGCACGGCAAACAG returned a remaining target (mRNA or protein) (fraction of control) of 0.81. Sequence CGAAGGCTGGGCTGAAGG came in with a remaining target (mRNA or protein) (fraction of control) of 0.73. CACTGGTAACTGCCCTCA registered a remaining target (mRNA or protein) (fraction of control) of 0.54.

Regarding GCCAGGGCATAGTTGTCC, the remaining target (mRNA or protein) (fraction of control) is 0.81. CCATCAGTCTCAGAGGGC displayed a remaining target (mRNA or protein) (fraction of control) of 0.3.

In the case of GCTGGTTGTTCTTGTGGA, the remaining target (mRNA or protein) (fraction of control) amounted to 0.73. Still for that read-out and setting: to GCACTTCTCACACCGCTG belongs 0.51; to CTGGTTCACACTGGCACG, 0.4. The same measure, in the same setting: to CTGGTAGAGGTGGCGGAG belongs at least 1; to TTGACACACTGGGTGGGC, 0.61; to TGATGCCAGCAGAAGTCA, 0.94.

GTGGATGTCAGGCAGATG registered a remaining target (mRNA or protein) (fraction of control) of 0.86. Take ACTCTGGTGGGTGAACCG: the remaining target (mRNA or protein) (fraction of control) came out at 0.86. Regarding CCGCACATCCTCCAGGTA, the remaining target (mRNA or protein) (fraction of control) is 0.64. With GACCACGACCAGCAGAAT, the remaining target (mRNA or protein) (fraction of control) was 0.76. Sequence CCTTTCCAGAGTGGCACC returned a remaining target (mRNA or protein) (fraction of control) of 0.75. The same measure, in the same setting: to GTTGGGCATCGCTCCGCT belongs 0.59. Take CCAGCAGTGAGCGGTAGA: the remaining target (mRNA or protein) (fraction of control) came to 0.41. GCACGAAGCAGAGGTGGG returned a remaining target (mRNA or protein) (fraction of control) of 0.47. The sequence TTCTGCTGCCGTCGCTTG came in with a remaining target (mRNA or protein) (fraction of control) of 0.75. As to CCCTTGTAGACTGTGCCA, the remaining target (mRNA or protein) (fraction of control) is 0.56.

GCAGCGGGAGCCCTTACA returned a remaining target (mRNA or protein) (fraction of control) of 0.83.

The sequence CAGGGTCAGCGAGTAGGC displayed a remaining target (mRNA or protein) (fraction of control) of 0.89. As to GCAGCCGAGCCAGCCCGA, the remaining target (mRNA or protein) (fraction of control) was 0.61. Sequence GACCATAGCACACTCGGG returned a remaining target (mRNA or protein) (fraction of control) of 0.57. Same read-out and setting: with GGGTGGTATTGTTCAGCG the figure was 0.94; with CCTGCCTCACTTGGTTGT, 0.64. On to ACCGCAGAGATGATGGAC, for which the remaining target (mRNA or protein) (fraction of control) stood at 0.98. Regarding GCACCACCTGGCAGCCCT, the remaining target (mRNA or protein) (fraction of control) amounted to 0.73. On to CCGCCACTCCTGGTAGAT, for which the remaining target (mRNA or protein) (fraction of control) is at least 1. The same measure, in the same setting: with GGGAACTCAAGCAGGAAG the figure was 0.68.

On to TCAGGTTTCACACCGCTG, for which the remaining target (mRNA or protein) (fraction of control) was determined as 0.66. On the same count and under the same terms, with GTGGTTGAAGTGGAGGCA the figure was 0.98.

Another series concerns the target DUSP8. The settings on record: ASO.
GAGCCGGTCCCCAGCCATGG: the remaining target (mRNA or protein) (fraction of control) was at least 1. Turning to AGGAGAGGTGCAGGCCGCGC, the remaining target (mRNA or protein) (fraction of control) was 0.91. Sequence GTCAGGACACCTCGATGACC yielded a remaining target (mRNA or protein) (fraction of control) of at least 1.

On to GACTGAAGGTGGCCTCGTAT, for which the remaining target (mRNA or protein) (fraction of control) came out at 0.69. On the same count and under the same terms, with GGCCAGCCGGTCCGCGCGTC the figure was 0.52.

The sequence CCCAGGCCCGCCCCGCAGCA displayed a remaining target (mRNA or protein) (fraction of control) of 0.66. For CCCGTCGGGCGACGGCGTGC, the remaining target (mRNA or protein) (fraction of control) was at least 1. In the case of AGAGGTGAGGCAGGATGCGG, the remaining target (mRNA or protein) (fraction of control) was at least 1.
